From article PMC12434308 (Nature chemical biology, 2021)

Legend:
SARS-CoV-2 RBD [1] = molecular target: T1, SARS-CoV-2 RBD (Severe acute respiratory syndrome coronavirus 2, UniProt P0DTC2)
SARS-CoV-2 RBD [2] = molecular target: T1, SARS-CoV-2 RBD; remark: listed apart in the source
RBD = details: read-out: Kd for the RBD; glycan immobilized, average MW 15,700 Da; cited from earlier work
[3] = test system: SARS-CoV-2 pseudotyped lentivirus; assay type: cell-based
ACE2+ HEK293 cells [4] = assay: fluorescent SARS-CoV-2 RBD trimer binding by flow cytometry; assay type: cell-based
control lentivirus = assay type: cell-based
SARS-CoV-2 S1 protein = details: model sialylated species; cited from earlier work
Vero-E6 cells = assay type: cell-based
ACE2+ HEK293 cells [5] = assay: SNA and PNA lectin staining by flow cytometry; assay type: cell-based; details: 3 d treatment, 300 μM
ACE2 = assay: anti-ACE2 antibody staining by flow cytometry; assay type: cell-based, human; details: ACE2+ HEK293 cells, 3FNeu5Ac treatment
SARS-CoV-2 S protein = SARS-CoV-2 S protein (Severe acute respiratory syndrome coronavirus 2, UniProt P0DTC2)
[6] = test system: ferret lung tissue sections

## COC1(C(=O)O)CC(O)C(NC(C)=O)C(C(O)C(O)CO)O1 (stereo not drawn) [MeαNeu5Ac, methyl α-sialoside]
SARS-CoV-2 RBD [1]
  relative abundance of released 69 on addition of competitor: qualitatively similar results as 41

## β-D-Gal-(1→3)-β-D-GalNAc-(1→4)-[α-D-Neu5Ac-(2→3)]-β-D-Gal-(1→4)-β-D-Glc-ceramide [GM1]
SARS-CoV-2 RBD [2]
  ganglioside ions released from RBD complexes (nanodisc): measured

## β-D-GalNAc-(1→4)-[α-D-Neu5Ac-(2→3)]-β-D-Gal-(1→4)-β-D-Glc-ceramide [GM2]
SARS-CoV-2 RBD [2]
  ganglioside ions released from RBD complexes (nanodisc): measured

## Galα(1-3)[Fucα(1-2)]Galβ(1-4)[Fucα(1-3)]Glc [glycan 87]
SARS-CoV-2 RBD [1]
  ligand released from RBD in presence of excess MeαNeu5Ac: most abundant ligand released

## heparin
RBD
  Kd: 1000 nM

## CCCCCCCCC(=O)N[C@H](CN1CCCC1)[C@H](O)c1ccc2c(c1)OCCO2 [GENZ-123346]
[3]
  pseudotyped viral infection of glycolipid-depleted cells: significant decreases
  pseudoviral entry: failed to elicit an effect
ACE2+ HEK293 cells [4]; 5 μM, 48 h
  SARS-CoV-2 RBD binding to glycolipid-depleted cells: significant decreases
Control lentivirus
  infection of control lentivirus: did not show differences

## β-D-GalNAc-(1→4)-[α-D-Neu5Ac-(2→8)-α-D-Neu5Ac-(2→3)]-β-D-Gal-(1→4)-β-D-Glc-ceramide [GD2]
SARS-CoV-2 RBD [2]
  ganglioside ions released from RBD complexes (nanodisc): no signals

## α-D-Neu5Ac-(2→3)-β-D-Gal-(1→4)-β-D-Glc-ceramide [GM3]
SARS-CoV-2 RBD [2]
  ganglioside ions released from RBD complexes (nanodisc): measured

## CC(=O)N[C@H]1[C@H]([C@H](O)[C@H](O)CO)O[C@@](O[C@H]2[C@@H](O)[C@@H](CO)O[C@@H](O[C@H]3[C@H](O)[C@@H](O)C(O)O[C@@H]3CO)[C@@H]2O)(C(=O)O)C[C@@H]1O (some centres unmarked) [3′-sialyllactose]
SARS-CoV-2 S1 protein
  Kd: millimolar

## CC(=O)N[C@H]1[C@H]([C@H](O)[C@H](O)CO)O[C@](O)(C(=O)O)C(F)[C@@H]1O (some centres unmarked) [3FNeu5Ac]
Vero-E6 cells
  RBD binding to treated Vero-E6 cells: decrease in RBD binding
[3]
  decrease in pseudotyped lentivirus infectivity: 30–40%
ACE2+ HEK293 cells [5]
  Sia on the cell surface (SNA and PNA staining): substantially decreased
ACE2
  ACE2 levels after ST inhibition: did not alter
ACE2+ HEK293 cells [4]; 300 μM, 72 h
  RBD binding to treated cells: consistently decreased
Control lentivirus
  viral entry of control lentivirus: no differences were observed

## α-D-Neu5Ac-(2→3)-β-D-Gal-(1→3)-β-D-GalNAc-(1→4)-[α-D-Neu5Ac-(2→3)]-β-D-Gal-(1→4)-β-D-Glc-ceramide [GD1a]
SARS-CoV-2 RBD [2]
  ganglioside ions released from RBD complexes (nanodisc): no signals

## α-Gal-Lewis X [glycan 50]
SARS-CoV-2 S protein
  relative CaR-ESI-MS response of ligand released from S protein: enhanced

## α-Neu5Ac-(2→3)-β-D-Gal-(1→3)-β-D-GalNAc-(1→4)-[α-Neu5Ac-(2→8)-α-Neu5Ac-(2→3)]-β-D-Gal-(1→4)-β-D-Glc-ceramide [GT1b]
SARS-CoV-2 RBD [2]
  ganglioside ions released from RBD complexes (nanodisc): no signals

## neuraminidase from Vibrio cholerae
Vero-E6 cells
  decrease of SARS-CoV-2 RBD binding: ~80%
[6]
  decrease of SARS-CoV-2 RBD binding: ~80%
